Data as given in patent publication US8367361B2, “Methods using O6-alkylguanine-DNA alkytransferase” (Ecole Polytechnique Federale de Lausanne, priority 2001, dated 2013).

Columns and labels:
[1] = target: T1, hAGT (Homo sapiens, UniProt P16455); conditions: cited from earlier work
T1 sequence (P16455 1-207): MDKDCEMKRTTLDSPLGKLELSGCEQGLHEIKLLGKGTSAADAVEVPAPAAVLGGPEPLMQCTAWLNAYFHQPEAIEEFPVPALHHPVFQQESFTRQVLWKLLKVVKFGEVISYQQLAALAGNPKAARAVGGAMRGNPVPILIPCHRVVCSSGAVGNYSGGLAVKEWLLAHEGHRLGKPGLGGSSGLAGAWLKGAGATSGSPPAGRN

[2] = target: T2, endogenous hAGT in human cells (HEK 293) (Homo sapiens, UniProt P16455); experiment: Fluorescence labelling of endogenous hAGT in HEK 293 cells, confocal microscopy; assay type: cell-based; conditions: HEK 293 cells preincubated overnight with 1 μM O6-benzylguanine before BG-AcFc
T2 construct: endogenous hAGT in human cells (HEK 293); endogenous in cells; host or cells: HEK 293
T2 sequence (P16455 1-207): T1 sequence (P16455 1-207)
Description: (C) is an overlay of the images obtained from fluorescence and light microscopy.
Images were then taken with a confocal fluorescence microscope (Ext. 492 nm; Em. 510 nm). […] This should inactivate the endogenous hAGT and therefore prevent the accumulation of the fluorescence in the nucleus. […] The substrate's emission wavelength is 519 nm (excitation at 237, 323 and 490 nm respectively).

For `Nc1nc(OCc2ccccc2)c2nc[nH]c2n1` [O^6-benzylguanine], which “second order rate constant of reaction with hAGT” value [1] is on record?
Its value is “approximately 10^3 sec^−1 M^−1”.

What about the “accumulation of BG-AcFc fluorescence in the nucleus after preincubation” value [2] of the same compound?
The value was “no accumulation of fluorescence in the nucleus was observed”.
